EC50 data for eight compounds are collected here from patent publication US8575135B2 (Gilead Sciences, Inc., priority 2011, dated 2013).

Where two headings read alike, the source gives them in different places.

What all share (assay): microbe, parasite or virus in culture
Common to all, as to conditions: Hepatitis C virus

Assay [1] concerns stable HCV 1b RLuc replicon cells (genotype 1b Con1 replicon). In kind it is cell-based.
In assay [2] the test system is stable HCV 1a RLuc replicon cells (genotype 1a H77 replicon). In kind it is cell-based.
Assay [3] deals with stable HCV 2a JFH-1 Rluc replicon cells (L31 present in NS5A). In kind it is cell-based.
For assay [4], the system named is NS5A chimeric genotype 2a JFH-1 replicon with genotype 2b MD2b-1 strain NS5A gene (M31 present). In kind it is cell-based, HCV. The method, boiled down:
(§1)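 Genotype 3a (S52) and 4a (ED43) NS5A chimeras use 1b Con1 Pi-RLuc replicons, transfected transiently; 2b MD2b-1 NS5A chimera (M31) uses 2a JFH-1 RLuc-Neo replicon, transient or stable.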

The subject of assay [5] is NS5A chimeric genotype 2a JFH-1 replicon with genotype 2a J6 strain NS5A gene (M31 present). In kind it is cell-based, HCV.
Assay [6] deals with NS5A chimeric genotype 1b Con1 replicon with genotype 4a ED43 strain NS5A gene. The assay is classed as cell-based, HCV.
Assay [7] relates to 1a Pi-Rluc replicon with Q30R in genotype 1a NS5A. In kind it is cell-based, HCV. In outline:
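Renilla luciferase replicon assay: 1a Pi-RLuc replicon carrying NS5A Q30R, transfected transiently into cured-51 (Huh-7-derived) cells.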

In assay [8] the test system is NS5A chimeric genotype 1b Con1 replicon with genotype 3a S52 strain NS5A gene. The assay is classed as cell-based, HCV. The method, boiled down:
as §1

For the compound `CCC(C)[C@H](NC(=O)OC)C(=O)N1C[C@@H](C)CC1c1ncc(-c2ccc3c(c2)COc2cc4c(ccc5nc([C@@H]6CC(COC)CN6C(=O)[C@@H](NC(=O)OC)C(C)C)[nH]c54)cc2-3)[nH]1` (stereo in doubt) [Example QC, Methyl {(2S)-1-[(2S,4S)-2-(9-{2-[(2S,4S)-1-{(2S,3R)-2-[(methoxycarbonyl)amino]-3-methylpentanoyl}-4-methylpyrrolidin-2-yl]-1H-imidazol-5-yl}-1,11-dihydroisochromeno[4′,3′:6,7]naphtho[1,2-d]imidazol-2-yl)-4-(methoxymethyl)pyrrolidin-1-yl]-3-methyl-1-oxobutan-2-yl}carbamate], the EC50 in assay [1] (read-out: 1b (nM)) is 0.014 nM; in assay [2] (read-out: 1a), less than 1 nM; in assay [2] (read-out: 1a (nM)) it was 0.012 nM; in assay [3] (read-out: 2a JFH), less than 1 nM; in assay [3] (read-out: 2a JFH (nM)), 0.008 nM; in assay [4] (read-out: 2b), less than 1 nM. Further, the EC50 in assay [4] (read-out: 2b (t) (nM)) is 0.317 nM; in assay [5] (read-out: 2a J6), less than 1 nM; in assay [5] (read-out: 2a Jb (t) (nM)), 0.157 nM.
Turning to `CCC(C)[C@H](NC(=O)OC)C(=O)N1C[C@@H](C)CC1c1ncc(-c2ccc3c(c2)COc2cc4c(ccc5nc([C@@H]6CC(COC)CN6C(=O)[C@@H](NC(=O)OC)C(C)OC)[nH]c54)cc2-3)[nH]1` (stereo in doubt) [Example QD, Methyl {(2S,3R)-1-[(2S,4S)-2-(5-{2-[(2S,4S)-1-[N-(methoxycarbonyl)-O-methyl-L-allothreonyl]-4-(methoxymethyl)pyrrolidin-2-yl]-1,11-dihydroisochromeno[4′,3′:6,7]naphtho[1,2-d]imidazol-9-yl}-1H-imidazol-2-yl)-4-methylpyrrolidin-1-yl]-3-methyl-1-oxopentan-2-yl}carbamate], the EC50 is 0.03 nM in assay [1] (read-out: 1b (nM)); less than 1 nM in assay [2] (read-out: 1a); 0.025 nM in assay [2] (read-out: 1a (nM)); less than 1 nM in assay [3] (read-out: 2a JFH); 0.013 nM in assay [3] (read-out: 2a JFH (nM)); less than 1 nM in assay [4] (read-out: 2b). Besides, the EC50 in assay [4] (read-out: 2b (t) (nM)) is 0.193 nM; in assay [5] (read-out: 2a J6), less than 1 nM; in assay [5] (read-out: 2a Jb (t) (nM)), 0.103 nM.
With `CCC(C)C(NC(=O)OC)C(=O)N1CC(COC)C[C@H]1c1nc2ccc3cc4c(cc3c2[nH]1)OCc1cc(-c2cnc(C3C[C@H](C)CN3C(=O)[C@@H](NC(=O)OC)C(C)CC)[nH]2)ccc1-4` (stereo in doubt) [Example QE, Methyl {(3R)-1-[(2S,4S)-2-(9-{2-[(2S,4S)-1-{(2S,3R)-2-[(methoxycarbonyl)amino]-3-methylpentanoyl}-4-methylpyrrolidin-2-yl]-1H-imidazol-5-yl}-1,11-dihydroisochromeno[4′,3′:6,7]naphtho[1,2-d]imidazol-2-yl)-4-(methoxymethyl)pyrrolidin-1-yl]-3-methyl-1-oxopentan-2-yl}carbamate], the EC50 was 0.015 nM in assay [1] (read-out: 1b (nM)); less than 1 nM in assay [2] (read-out: 1a); 0.013 nM in assay [2] (read-out: 1a (nM)); less than 1 nM in assay [3] (read-out: 2a JFH); 0.011 nM in assay [3] (read-out: 2a JFH (nM)); less than 1 nM in assay [4] (read-out: 2b). Also, the EC50 in assay [4] (read-out: 2b (t) (nM)) was 0.563 nM; in assay [5] (read-out: 2a J6) it was less than 1 nM; in assay [5] (read-out: 2a Jb (t) (nM)), 0.291 nM.
Turning to `COC[C@H]1C[C@@H](c2nc3ccc4cc5c(cc4c3[nH]2)OCc2cc(-c3cnc([C@@H]4CC[C@H](C)N4C(=O)[C@@H](NC(=O)OC)[C@@H](C)OC)[nH]3)ccc2-5)N(C(=O)[C@@H](NC(=O)OC)[C@@H](C)OC)C1` [Compound 646], the EC50 is 0.034 nM in assay [6] (read-out: 4a (s) (nM) EC50); less than 1 nM in assay [6] (read-out: 4a EC50 range); 0.109 nM in assay [1] (read-out: 1b (nM) EC50); 0.058 nM in assay [2] (read-out: 1a (nM) EC50); less than 1 nM in assay [2] (read-out: 1a EC50 range); 0.03 nM in assay [3] (read-out: 2a JFH (nM) EC50). Further, the EC50 is less than 1 nM in assay [3] (read-out: 2a JFH EC50 range); 0.262 nM in assay [4] (read-out: 2b (s) (nM) EC50); 0.112 nM in assay [4] (read-out: 2b (t) (nM) EC50); less than 1 nM in assay [4] (read-out: 2b EC50 range); less than 1 nM in assay [5] (read-out: 2a J6 EC50 range); 0.042 nM in assay [5] (read-out: 2a Jb (t) (nM) EC50).
On to `COC[C@H]1C[C@@H](c2nc3ccc4cc5c(cc4c3[nH]2)OCc2cc(-c3cnc([C@@H]4C[C@H](C)CN4C(=O)[C@@H](NC(=O)OC)[C@@H](C)OC)[nH]3)ccc2-5)N(C(=O)[C@@H](NC(=O)OC)[C@@H](C)OC)C1` [Example NK, Methyl {(2S,3R)-3-methoxy-1-[(2S,4S)-2-[9-(2-{(2S,4S)-1-[N-(methoxycarbonyl)-O-methyl-L-threonyl]-4-methylpyrrolidin-2-yl}-1H-imidazol-5-yl)-1,11-dihydroisochromeno[4′,3′:6,7]naphtho[1,2-d]imidazol-2-yl]-4-(methoxymethyl)pyrrolidin-1-yl]-1-oxobutan-2-yl}carbamate], for which the EC50 in assay [1] (read-out: 1b (nM)) is 0.081 nM; in assay [2] (read-out: 1a), less than 1 nM; in assay [2] (read-out: 1a (nM)), 0.049 nM; in assay [3] (read-out: 2a JFH) it was less than 1 nM; in assay [3] (read-out: 2a JFH (nM)) it was 0.018 nM; in assay [4] (read-out: 2b) it was less than 1 nM. Moreover, the EC50 is 0.154 nM in assay [4] (read-out: 2b (t) (nM)), less than 1 nM in assay [5] (read-out: 2a J6) and 0.056 nM in assay [5] (read-out: 2a Jb (t) (nM)).
On to `COC(=O)N[C@H](C(=O)N1[C@@H](C)CC[C@H]1c1ncc(-c2ccc3c(c2)COc2cc4c(ccc5nc([C@@H]6C[C@H](C)CN6C(=O)[C@@H](NC(=O)OC)[C@@H](C)OC)[nH]c54)cc2-3)[nH]1)C(C)C` [Example NL, Methyl {(2S)-1-[(2S,5S)-2-(5-{2-[(2S,4S)-1-{(2S,3R)-3-methoxy-2-[(methoxycarbonyl)amino]butanoyl}-4-methylpyrrolidin-2-yl]-1,11-dihydroisochromeno[4′,3′:6,7]naphtho[1,2-d]imidazol-9-yl}-1H-imidazol-2-yl)-5-methylpyrrolidin-1-yl]-3-methyl-1-oxobutan-2-yl}carbamate], for which the EC50 in assay [1] (read-out: 1b (nM)) was 0.013 nM; in assay [2] (read-out: 1a), less than 1 nM; in assay [2] (read-out: 1a (nM)), 0.011 nM; in assay [3] (read-out: 2a JFH) it was less than 1 nM; in assay [3] (read-out: 2a JFH (nM)) it was 0.007 nM; in assay [4] (read-out: 2b), less than 1 nM. The EC50 in assay [4] (read-out: 2b (t) (nM)) is 0.034 nM; in assay [5] (read-out: 2a J6) it was less than 1 nM; in assay [5] (read-out: 2a Jb (t) (nM)), 0.043 nM.
For the compound `COC(=O)N[C@H](C(=O)N1[C@H](c2nc3ccc4cc5c(cc4c3[nH]2)OCc2cc(-c3cnc(C4CCCN4C(=O)[C@@H](NC(=O)OC)C4CCOCC4)[nH]3)ccc2-5)C[C@@H]2CCC[C@@H]21)C(C)C` (stereo partly drawn) [Example PP, methyl [(1S)-2-[2-(5-{2-[(2S,3aS,6aS)-1-{(2S)-2-[(methoxycarbonyl)amino]-3-methylbutanoyl}octahydrocyclopenta[b]pyrrol-2-yl]-1,11-dihydroisochromeno[4′,3′:6,7]naphtho[1,2-d]imidazol-9-yl}-1H-imidazol-2-yl)pyrrolidin-1-yl]-2-oxo-1-(tetrahydro-2H-pyran-4-yl)ethyl]carbamate], the EC50 in assay [6] (read-out: 4a) was less than 1 nM; in assay [6] (read-out: 4a (s) (nM)), 0.011 nM; in assay [6] (read-out: 4a (t) (nM)), 0.027 nM; in assay [7] (read-out: 1a Q30R), less than 1 nM; in assay [7] (read-out: 1a Q30R (nM)), 0.043 nM; in assay [2] (read-out: 1a) it was less than 1 nM. Further, the EC50 in assay [2] (read-out: 1a (nM)) was 0.014 nM; in assay [3] (read-out: 2a JFH) it was less than 1 nM; in assay [3] (read-out: 2a JFH (nM)) it was 0.011 nM; in assay [4] (read-out: 2b), less than 1 nM; in assay [4] (read-out: 2b (s) (nM)) it was 0.11 nM; in assay [4] (read-out: 2b (t) (nM)) it was 0.038 nM. For the same compound, the EC50 in assay [5] (read-out: 2a J6) is less than 1 nM; in assay [5] (read-out: 2a J6 (s) (nM)), 0.403 nM; in assay [5] (read-out: 2a Jb (t) (nM)), 0.061 nM; in assay [8] (read-out: 3a) it was less than 1 nM; in assay [8] (read-out: 3a (nM)), 0.019 nM.
As to `COC[C@H]1C[C@@H](c2ncc(-c3ccc4c(c3)COc3cc5c(ccc6nc([C@@H]7CC[C@H](C)N7C(=O)[C@@H](NC(=O)OC)C(C)C)[nH]c65)cc3-4)[nH]2)N(C(=O)[C@@H](NC(=O)OC)C(C)C)C1` [Example PZ, Methyl {(2S)-1-[(2S,5S)-2-(9-{2-[(2S,4S)-1-{(2S)-2-[(methoxycarbonyl)amino]-3-methylbutanoyl}-4-(methoxymethyl)pyrrolidin-2-yl]-1H-imidazol-5-yl}-1,11-dihydroisochromeno[4′,3′:6,7]naphtho[1,2-d]imidazol-2-yl)-5-methylpyrrolidin-1-yl]-3-methyl-1-oxobutan-2-yl}carbamate], the EC50 in assay [6] (read-out: 4a (s) (nM)) is 0.025 nM; in assay [7] (read-out: 1a Q30R), less than 1 nM; in assay [7] (read-out: 1a Q30R (nM)), 0.057 nM; in assay [2] (read-out: 1a) it was less than 1 nM; in assay [2] (read-out: 1a (nM)), 0.009 nM; in assay [3] (read-out: 2a JFH), less than 1 nM. Also, the EC50 in assay [3] (read-out: 2a JFH (nM)) is 0.005 nM; in assay [4] (read-out: 2b) it was less than 1 nM; in assay [4] (read-out: 2b (s) (nM)) it was 0.386 nM; in assay [4] (read-out: 2b (t) (nM)) it was 0.071 nM; in assay [5] (read-out: 2a J6), less than 1 nM; in assay [5] (read-out: 2a J6 (s) (nM)), 1.71 nM. The EC50 was 0.175 nM in assay [5] (read-out: 2a Jb (t) (nM)) and less than 1 nM in assay [8] (read-out: 3a).
